Measured values as given in patent US10167262B2, “Herbicidal substituted 3-arylpyrazoles” (FMC CORPORATION, priority 2014, dated 2019).
Where two headings read alike, the source gives them in different places.

Experiments:
Format in all cases: in vivo
[1] = system: chickweed (common chickweed, Stellaria media); experiment: Test C postemergence greenhouse test, plant response rating 0-100; details: Stellaria media, post-emergence
Method in brief: (§1)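 Postemergence spray of formulated test chemicals on plants 2 to 18 cm tall (1- to 4-leaf stage) grown in peat/vermiculite medium. Greenhouse hold 13 to 15 days, then visual comparison with untreated controls on a 0-100 scale (0 no effect, 100 complete control); dash means no test result.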

[2] = system: kochia (Kochia scoparia); experiment: as above; details: Bassia scoparia, post-emergence
Method in brief: as §1

[3] = system: wild oat (Avena fatua); experiment: as above; details: Avena fatua, post-emergence
Method in brief: as §1

[4] = system: giant foxtail (Setaria faberii); experiment: Test C pre-/postemergence greenhouse test, plant response rating 0-100; details: Setaria faberi; for pest or weed control at 62 g/ha: 62 g ai/ha; for pest or weed control at 125 g/ha: 125 g ai/ha; for pest or weed control at 250 g/ha: 250 g ai/ha
Method in brief: (§2)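 Plants were treated either at seeding (soil of loam and sand) or as 2–18 cm seedlings in a sphagnum peat mix, using test chemicals in a surfactant-containing non-phytotoxic solvent. Visual assessment relative to controls followed 13–15 days later.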

[5] = system: soybean (Glycine max); experiment: as above; details: Glycine max; for plant injury at 62 g/ha: 62 g ai/ha; for plant injury at 125 g/ha: 125 g ai/ha; for plant injury at 250 g/ha: 250 g ai/ha
Method in brief: as §2

[6] = system: Italian ryegrass (Lolium multiflorum); experiment: as above; details: Lolium multiflorum; for pest or weed control at 62 g/ha: 62 g ai/ha; for pest or weed control at 125 g/ha: 125 g ai/ha; for pest or weed control at 250 g/ha: 250 g ai/ha
Method in brief: as §2

[7] = system: morningglory (Ipomoea spp.); experiment: Test A pre-/postemergence greenhouse herbicide test, visual injury rating 0-100; details: for pest or weed control at 500 g/ha: 500 g ai/ha
Method in brief: (§3)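 Greenhouse plants received compound either as directed soil spray at planting or as postemergence spray at the one- to two-leaf stage (2–10 cm). Evaluated after about 10 days by visual comparison with untreated controls.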

[8] = system: corn (Zea mays); experiment: as above; details: for plant injury at 500 g/ha: 500 g ai/ha
Method in brief: as §3

[9] = system: giant foxtail (Setaria faberii); experiment: as above; details: for pest or weed control at 500 g/ha: 500 g ai/ha
Method in brief: as §3

[10] = system: wheat (Triticum aestivum); experiment: as above; details: for plant injury at 500 g/ha: 500 g ai/ha
Method in brief: as §3

[11] = system: barnyardgrass (Echinochloa crus-galli); experiment: as above; details: for pest or weed control at 500 g/ha: 500 g ai/ha
Method in brief: as §3

[12] = system: pigweed (Amaranthus retroflexus); experiment: as above; details: for pest or weed control at 500 g/ha: 500 g ai/ha
Method in brief: as §3

[13] = system: large (Lg) crabgrass (Digitaria sanguinalis); experiment: as above; details: for pest or weed control at 500 g/ha: 500 g ai/ha
Method in brief: as §3

[14] = system: velvetleaf (Abutilon theophrasti); experiment: as above; details: for pest or weed control at 500 g/ha: 500 g ai/ha
Method in brief: as §3

[15] = post-emergence, Postemergence, read-out: Plant response rating (0 to 100), Foxtail, Giant
[16] = post-emergence, Postemergence, scale 0 to 100
[17] = pre-emergence, Preemergence, read-out: Plant response rating, Foxtail, Giant
[18] = pre-emergence, Preemergence, 500 g ai/ha
[19] = post-emergence, Postemergence, read-out: Plant response rating (0 to 100), Soybean
[20] = pre-emergence, Preemergence, read-out: Plant response rating, Soybean
[21] = post-emergence, Postemergence, read-out: Plant response rating (0 to 100), Ryegrass, Italian
[22] = pre-emergence, Preemergence, read-out: Plant response rating, Ryegrass, Italian

Cn1cc(C(=O)c2ccccc2)c(-c2cc(Cl)cc(Cl)c2)n1 [Compound 54, [3-(3,5-dichlorophenyl)-1-methyl-1H-pyrazol-4-yl]phenylmethanone]
pest or weed control at 31 g/ha ([1]; 31 g ai/ha): 0% | pest or weed control at 62 g/ha ([1]; 62 g ai/ha): 90% | pest or weed control at 125 g/ha ([1]; 125 g ai/ha): 100% | pest or weed control at 250 g/ha ([1]; 250 g ai/ha, scale 0 to 100): 100% | pest or weed control at 62 g/ha ([2]; 62 g ai/ha): 60% | pest or weed control at 125 g/ha ([2]; 125 g ai/ha): 65% | pest or weed control at 250 g/ha ([2]; 250 g ai/ha, scale 0 to 100): 70% | pest or weed control at 62 g/ha ([3]; 62 g ai/ha): 0% | pest or weed control at 125 g/ha ([3]; 125 g ai/ha): 0% | pest or weed control at 250 g/ha ([3]; 250 g ai/ha, scale 0 to 100): 0% | pest or weed control at 31 g/ha ([4]; post-emergence, Postemergence, 31 g ai/ha, read-out: Plant response rating (0 to 100), Foxtail, Giant): 0% | pest or weed control at 62 g/ha [4, 15]: 0% | pest or weed control at 125 g/ha [4, 15]: 5% | pest or weed control at 250 g/ha [4, 16]: 5% | pest or weed control at 62 g/ha [4, 17]: 0% | pest or weed control at 125 g/ha [4, 17]: 0% | pest or weed control at 250 g/ha ([4]; pre-emergence, Preemergence): 0% | pest or weed control at 500 g/ha [4, 18]: 0% | plant injury at 62 g/ha [5, 19]: 0% | plant injury at 125 g/ha [5, 19]: 0% | plant injury at 250 g/ha [5, 16]: 0% | plant injury at 62 g/ha [5, 20]: 0% | plant injury at 125 g/ha [5, 20]: 0% | plant injury at 250 g/ha ([5]; pre-emergence, Preemergence): 0% | plant injury at 500 g/ha [5, 18]: 0% | pest or weed control at 62 g/ha [6, 21]: 0% | pest or weed control at 125 g/ha [6, 21]: 0% | pest or weed control at 250 g/ha [6, 16]: 0% | pest or weed control at 62 g/ha [6, 22]: 0% | pest or weed control at 125 g/ha [6, 22]: 0% | pest or weed control at 250 g/ha ([6]; pre-emergence, Preemergence): 0% | pest or weed control at 500 g/ha [6, 18]: 0% | pest or weed control at 125 g/ha ([7]; Ipomoea, post-emergence, 240 h, Postemergence, 125 g ai/ha, read-out: Plant response rating (0 to 100 scale), Morningglory): 0% | pest or weed control at 500 g/ha ([7]; Ipomoea, post-emergence, 240 h, Postemergence, read-out: Plant response rating (0 to 100 scale), Morningglory): 0% | pest or weed control at 500 g/ha ([7]; Ipomoea, pre-emergence, 240 h, Preemergence, read-out: Plant response rating (0 to 100 scale), Morningglory): 0% | Morningglory plant response rating (0 = no effect, 100 = complete control) ([7]; Preemergence, 125 g ai/ha): 0 | Corn plant response rating (0 = no effect, 100 = complete control) ([8]; Preemergence, 125 g ai/ha): 0 | plant injury at 125 g/ha ([8]; Zea mays, post-emergence, 240 h, Postemergence, 125 g ai/ha, read-out: Plant response rating (0 to 100 scale), Corn): 0% | plant injury at 500 g/ha ([8]; Zea mays, post-emergence, 240 h, Postemergence, read-out: Plant response rating (0 to 100 scale), Corn): 0% | plant injury at 500 g/ha ([8]; Zea mays, pre-emergence, 240 h, Preemergence, read-out: Plant response rating (0 to 100 scale), Corn): 0% | Foxtail, Giant plant response rating (0 = no effect, 100 = complete control) ([9]; Preemergence, 125 g ai/ha): 0 | pest or weed control at 125 g/ha ([9]; Setaria faberi, post-emergence, 240 h, Postemergence, 125 g ai/ha, read-out: Plant response rating (0 to 100 scale), Foxtail, Giant): 0% | pest or weed control at 500 g/ha ([9]; Setaria faberi, post-emergence, 240 h, Postemergence, read-out: Plant response rating (0 to 100 scale), Foxtail, Giant): 0% | pest or weed control at 500 g/ha ([9]; Setaria faberi, pre-emergence, 240 h, Preemergence, read-out: Plant response rating (0 to 100 scale), Foxtail, Giant): 0% | Wheat plant response rating (0 = no effect, 100 = complete control) ([10]; Preemergence, 125 g ai/ha): 0 | plant injury at 125 g/ha ([10]; Triticum aestivum, post-emergence, 240 h, Postemergence, 125 g ai/ha, read-out: Plant response rating (0 to 100 scale), Wheat): 0% | plant injury at 500 g/ha ([10]; Triticum aestivum, post-emergence, 240 h, Postemergence, read-out: Plant response rating (0 to 100 scale), Wheat): 0% | plant injury at 500 g/ha ([10]; Triticum aestivum, pre-emergence, 240 h, Preemergence, read-out: Plant response rating (0 to 100 scale), Wheat): 0% | pest or weed control at 125 g/ha ([11]; Echinochloa crus-galli, post-emergence, 240 h, Postemergence, 125 g ai/ha, read-out: Plant response rating (0 to 100 scale), Barnyardgrass): 0% | pest or weed control at 500 g/ha ([11]; Echinochloa crus-galli, post-emergence, 240 h, Postemergence, read-out: Plant response rating (0 to 100 scale), Barnyardgrass): 0% | pest or weed control at 500 g/ha ([11]; Echinochloa crus-galli, pre-emergence, 240 h, Preemergence, read-out: Plant response rating (0 to 100 scale), Barnyardgrass): 0% | Barnyardgrass plant response rating (0 = no effect, 100 = complete control) ([11]; Preemergence, 125 g ai/ha): 0 | pest or weed control at 125 g/ha ([12]; Amaranthus retroflexus, post-emergence, 240 h, Postemergence, 125 g ai/ha, read-out: Plant response rating (0 to 100 scale), Pigweed): 90% | pest or weed control at 500 g/ha ([12]; Amaranthus retroflexus, post-emergence, 240 h, Postemergence, read-out: Plant response rating (0 to 100 scale), Pigweed): 100% | pest or weed control at 500 g/ha ([12]; Amaranthus retroflexus, pre-emergence, 240 h, Preemergence, read-out: Plant response rating (0 to 100 scale), Pigweed): 90% | Pigweed plant response rating (0 = no effect, 100 = complete control) ([12]; Preemergence, 125 g ai/ha): 50 | pest or weed control at 125 g/ha ([13]; Digitaria sanguinalis, post-emergence, 240 h, Postemergence, 125 g ai/ha, read-out: Plant response rating (0 to 100 scale), Crabgrass, Large): 0% | pest or weed control at 500 g/ha ([13]; Digitaria sanguinalis, post-emergence, 240 h, Postemergence, read-out: Plant response rating (0 to 100 scale), Crabgrass, Large): 0% | pest or weed control at 500 g/ha ([13]; Digitaria sanguinalis, pre-emergence, 240 h, Preemergence, read-out: Plant response rating (0 to 100 scale), Crabgrass, Large): 0% | Crabgrass, Large plant response rating (0 = no effect, 100 = complete control) ([13]; Preemergence, 125 g ai/ha): 0 | pest or weed control at 125 g/ha ([14]; Abutilon theophrasti, post-emergence, 240 h, Postemergence, 125 g ai/ha, read-out: Plant response rating (0 to 100 scale), Velvetleaf): 90% | pest or weed control at 500 g/ha ([14]; Abutilon theophrasti, post-emergence, 240 h, Postemergence, read-out: Plant response rating (0 to 100 scale), Velvetleaf): 100% | pest or weed control at 500 g/ha ([14]; Abutilon theophrasti, pre-emergence, 240 h, Preemergence, read-out: Plant response rating (0 to 100 scale), Velvetleaf): 60% | Velvetleaf plant response rating (0 = no effect, 100 = complete control) ([14]; Preemergence, 125 g ai/ha): 30
